{"source": "ChEMBL document CHEMBL1201862", "about": "“PubChem BioAssay data set” (2004)", "test_in_all_cases": "NCI tumour cell line growth inhibition, 48 h", "key": {"786-0": {"system": "786-0"}, "A549": {"system": "A549"}, "ACHN": {"system": "ACHN"}, "CAKI-1": {"system": "CAKI-1"}, "COLO 205": {"system": "COLO 205"}, "DLD-1": {"system": "DLD-1"}, "DMS-114": {"system": "DMS-114"}, "DMS-273": {"system": "DMS-273"}, "EKVX": {"system": "EKVX"}, "HCC 2998": {"system": "HCC 2998"}, "HCT-116": {"system": "HCT-116"}, "HL-60": {"system": "HL-60"}, "HOP-62": {"system": "HOP-62"}, "HOP-92": {"system": "HOP-92"}, "HT-29": {"system": "HT-29"}, "KM-20L2": {"system": "KM-20L2"}, "KM12": {"system": "KM12"}, "LOX IMVI": {"system": "LOX IMVI"}, "LXFL 529": {"system": "LXFL 529"}, "M14": {"system": "M14"}, "M19-MEL": {"system": "M19-MEL"}, "Malme-3M": {"system": "Malme-3M"}, "NCI-H226": {"system": "NCI-H226"}, "NCI-H23": {"system": "NCI-H23"}, "NCI-H460": {"system": "NCI-H460"}, "NCI-H522": {"system": "NCI-H522"}, "OVCAR-3": {"system": "OVCAR-3"}, "OVCAR-4": {"system": "OVCAR-4"}, "OVCAR-5": {"system": "OVCAR-5"}, "OVCAR-8": {"system": "OVCAR-8"}, "RXF 393": {"system": "RXF 393"}, "SF-268": {"system": "SF-268"}, "SF-295": {"system": "SF-295"}, "SF-539": {"system": "SF-539"}, "SK-MEL-28": {"system": "SK-MEL-28"}, "SK-MEL-2": {"system": "SK-MEL-2"}, "SN12C": {"system": "SN12C"}, "SNB-19": {"system": "SNB-19"}, "SNB-75": {"system": "SNB-75"}, "SNB-78": {"system": "SNB-78"}, "SW-620": {"system": "SW-620"}, "TK-10": {"system": "TK-10"}, "U-251": {"system": "U-251"}, "UACC-257": {"system": "UACC-257"}, "UO-31": {"system": "UO-31"}, "A498": {"system": "A498"}, "CCRF-CEM": {"system": "CCRF-CEM"}, "HCT-15": {"system": "HCT-15"}, "HOP-18": {"system": "HOP-18"}, "IGROV-1": {"system": "IGROV-1"}, "K562": {"system": "K562"}, "MCF7": {"system": "MCF7"}, "MOLT-4": {"system": "MOLT-4"}, "NCI/ADR-RES": {"system": "NCI/ADR-RES"}, "RPMI-8226": {"system": "RPMI-8226"}, "SK-MEL-5": {"system": "SK-MEL-5"}, "SK-OV-3": {"system": "SK-OV-3"}, "UACC-62": {"system": "UACC-62"}, "XF498": {"system": "XF498"}}, "note": "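Growth conditions: 96-well plates. Treatment: test compound, 48 hours, 5 concentrations. Analysis: linear interpolation between bracketing concentrations; unreached endpoints set to highest concentration. At the GI50, growth is halved.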 Calls of active or inactive are those of the source. Cut-off read from the data, not from the text of the source: active = GI50 up to about 1.1 µM and inactive = higher.", "data": [{"smiles": "CC(C)=CCC/C(C)=C/CC/C(C)=C/CCC1(C)CCC([C@H](C)C(=O)O)OO1.CC1=C(CC/C(C)=C/CCC2(C)CCC([C@H](C)C(=O)O)OO2)C(C)(C)CCC1", "note": "(some centres not stated)", "values": [{"measurement": "GI50", "setting": "786-0", "value": "> 100 µM (inactive)"}, {"measurement": "GI50", "setting": "A549", "value": "> 100 µM (inactive)"}, {"measurement": "GI50", "setting": "ACHN", "value": "> 100 µM (inactive)"}, {"measurement": "GI50", "setting": "CAKI-1", "value": "> 100 µM (inactive)"}, {"measurement": "GI50", "setting": "COLO 205", "value": "> 100 µM (inactive)"}, {"measurement": "GI50", "setting": "DLD-1", "value": "> 100 µM (inactive)"}, {"measurement": "GI50", "setting": "DMS-114", "value": "> 100 µM (inactive)"}, {"measurement": "GI50", "setting": "DMS-273", "value": "> 100 µM (inactive)"}, {"measurement": "GI50", "setting": "EKVX", "value": "> 100 µM (inactive)"}, {"measurement": "GI50", "setting": "HCC 2998", "value": "85.3 µM (inactive)"}, {"measurement": "GI50", "setting": "HCT-116", "value": "> 100 µM (inactive)"}, {"measurement": "GI50", "setting": "HL-60", "value": "> 100 µM (inactive)"}, {"measurement": "GI50", "setting": "HOP-62", "value": "> 100 µM (inactive)"}, {"measurement": "GI50", "setting": "HOP-92", "value": "> 100 µM (inactive)"}, {"measurement": "GI50", "setting": "HT-29", "value": "> 100 µM (inactive)"}, {"measurement": "GI50", "setting": "KM-20L2", "value": "> 100 µM (inactive)"}, {"measurement": "GI50", "setting": "KM12", "value": "> 100 µM (inactive)"}, {"measurement": "GI50", "setting": "LOX IMVI", "value": "> 100 µM (inactive)"}, {"measurement": "GI50", "setting": "LXFL 529", "value": "> 100 µM (inactive)"}, {"measurement": "GI50", "setting": "M14", "value": "> 100 µM (inactive)"}, {"measurement": "GI50", "setting": "M19-MEL", "value": "> 100 µM (inactive)"}, {"measurement": "GI50", "setting": "Malme-3M", "value": "> 100 µM (inactive)"}, {"measurement": "GI50", "setting": "NCI-H226", "value": "> 100 µM (inactive)"}, {"measurement": "GI50", "setting": "NCI-H23", "value": "> 100 µM (inactive)"}, {"measurement": "GI50", "setting": "NCI-H460", "value": "> 100 µM (inactive)"}, {"measurement": "GI50", "setting": "NCI-H522", "value": "> 100 µM (inactive)"}, {"measurement": "GI50", "setting": "OVCAR-3", "value": "> 100 µM (inactive)"}, {"measurement": "GI50", "setting": "OVCAR-4", "value": "> 100 µM (inactive)"}, {"measurement": "GI50", "setting": "OVCAR-5", "value": "> 100 µM (inactive)"}, {"measurement": "GI50", "setting": "OVCAR-8", "value": "> 100 µM (inactive)"}, {"measurement": "GI50", "setting": "RXF 393", "value": "> 100 µM (inactive)"}, {"measurement": "GI50", "setting": "SF-268", "value": "> 100 µM (inactive)"}, {"measurement": "GI50", "setting": "SF-295", "value": "> 100 µM (inactive)"}, {"measurement": "GI50", "setting": "SF-539", "value": "> 100 µM (inactive)"}, {"measurement": "GI50", "setting": "SK-MEL-28", "value": "> 100 µM (inactive)"}, {"measurement": "GI50", "setting": "SK-MEL-2", "value": "> 100 µM (inactive)"}, {"measurement": "GI50", "setting": "SN12C", "value": "> 100 µM (inactive)"}, {"measurement": "GI50", "setting": "SNB-19", "value": "> 100 µM (inactive)"}, {"measurement": "GI50", "setting": "SNB-75", "value": "> 100 µM (inactive)"}, {"measurement": "GI50", "setting": "SNB-78", "value": "> 100 µM (inactive)"}, {"measurement": "GI50", "setting": "SW-620", "value": "> 100 µM (inactive)"}, {"measurement": "GI50", "setting": "TK-10", "value": "> 100 µM (inactive)"}, {"measurement": "GI50", "setting": "U-251", "value": "> 100 µM (inactive)"}, {"measurement": "GI50", "setting": "UACC-257", "value": "> 100 µM (inactive)"}, {"measurement": "GI50", "setting": "UO-31", "value": "> 100 µM (inactive)"}]}, {"smiles": "CCCCCCNC(=O)C(C)C1CCC2(C)C=CC(=O)C(C)=C2C1O", "note": "(configuration not stated)", "values": [{"measurement": "GI50", "setting": "A498", "value": "> 100 µM (inactive)"}, {"measurement": "GI50", "setting": "A549", "value": "> 100 µM (inactive)"}, {"measurement": "GI50", "setting": "CAKI-1", "value": "> 100 µM (inactive)"}, {"measurement": "GI50", "setting": "CCRF-CEM", "value": "> 100 µM (inactive)"}, {"measurement": "GI50", "setting": "COLO 205", "value": "> 100 µM (inactive)"}, {"measurement": "GI50", "setting": "DLD-1", "value": "> 100 µM (inactive)"}, {"measurement": "GI50", "setting": "DMS-114", "value": "45.3 µM (inactive)"}, {"measurement": "GI50", "setting": "DMS-273", "value": "> 100 µM (inactive)"}, {"measurement": "GI50", "setting": "EKVX", "value": "> 100 µM (inactive)"}, {"measurement": "GI50", "setting": "HCC 2998", "value": "> 100 µM (inactive)"}, {"measurement": "GI50", "setting": "HCT-116", "value": "> 100 µM (inactive)"}, {"measurement": "GI50", "setting": "HCT-15", "value": "> 100", "unit": "µM"}, {"measurement": "GI50", "setting": "HL-60", "value": "> 64.4 µM (inactive)"}, {"measurement": "GI50", "setting": "HOP-18", "value": "> 100 µM (inactive)"}, {"measurement": "GI50", "setting": "HOP-62", "value": "> 100 µM (inactive)"}, {"measurement": "GI50", "setting": "HOP-92", "value": "45.2 µM (inactive)"}, {"measurement": "GI50", "setting": "HT-29", "value": "> 100 µM (inactive)"}, {"measurement": "GI50", "setting": "IGROV-1", "value": "> 100 µM (inactive)"}, {"measurement": "GI50", "setting": "K562", "value": "68.5 µM (inactive)"}, {"measurement": "GI50", "setting": "KM-20L2", "value": "> 100 µM (inactive)"}, {"measurement": "GI50", "setting": "KM12", "value": "> 88.1 µM (inactive)"}, {"measurement": "GI50", "setting": "LOX IMVI", "value": "> 100 µM (inactive)"}, {"measurement": "GI50", "setting": "MCF7", "value": "> 100 µM (inactive)"}, {"measurement": "GI50", "setting": "MOLT-4", "value": "> 75.2 µM (inactive)"}, {"measurement": "GI50", "setting": "NCI-H226", "value": "> 100 µM (inactive)"}, {"measurement": "GI50", "setting": "NCI-H23", "value": "> 94 µM (inactive)"}, {"measurement": "GI50", "setting": "NCI-H460", "value": "> 100 µM (inactive)"}, {"measurement": "GI50", "setting": "NCI-H522", "value": "86.3 µM (inactive)"}, {"measurement": "GI50", "setting": "NCI/ADR-RES", "value": "> 100 µM (inactive)"}, {"measurement": "GI50", "setting": "OVCAR-3", "value": "> 100 µM (inactive)"}, {"measurement": "GI50", "setting": "OVCAR-4", "value": "96.8 µM (inactive)"}, {"measurement": "GI50", "setting": "OVCAR-5", "value": "99.1 µM (inactive)"}, {"measurement": "GI50", "setting": "OVCAR-8", "value": "> 100 µM (inactive)"}, {"measurement": "GI50", "setting": "RPMI-8226", "value": "> 70.3 µM (inactive)"}, {"measurement": "GI50", "setting": "RXF 393", "value": "> 100 µM (inactive)"}, {"measurement": "GI50", "setting": "SF-268", "value": "> 100 µM (inactive)"}, {"measurement": "GI50", "setting": "SF-295", "value": "> 100 µM (inactive)"}, {"measurement": "GI50", "setting": "SF-539", "value": "> 100 µM (inactive)"}, {"measurement": "GI50", "setting": "SK-MEL-28", "value": "> 100 µM (inactive)"}, {"measurement": "GI50", "setting": "SK-MEL-2", "value": "> 100 µM (inactive)"}, {"measurement": "GI50", "setting": "SK-MEL-5", "value": "> 74.1 µM (inactive)"}, {"measurement": "GI50", "setting": "SK-OV-3", "value": "> 100 µM (inactive)"}, {"measurement": "GI50", "setting": "SN12C", "value": "> 100 µM (inactive)"}, {"measurement": "GI50", "setting": "SNB-19", "value": "> 100 µM (inactive)"}, {"measurement": "GI50", "setting": "SNB-75", "value": "> 100 µM (inactive)"}, {"measurement": "GI50", "setting": "SNB-78", "value": "> 100 µM (inactive)"}, {"measurement": "GI50", "setting": "SW-620", "value": "> 100 µM (inactive)"}, {"measurement": "GI50", "setting": "U-251", "value": "> 100 µM (inactive)"}, {"measurement": "GI50", "setting": "UACC-257", "value": "> 94.8 µM (inactive)"}, {"measurement": "GI50", "setting": "UACC-62", "value": "> 100 µM (inactive)"}, {"measurement": "GI50", "setting": "UO-31", "value": "> 89.9 µM (inactive)"}, {"measurement": "GI50", "setting": "XF498", "value": "> 100 µM (inactive)"}]}]}
